Measured values as given in article PMC9369162, “Substrates of the Human Brain Proton-Organic Cation Antiporter and Comparison with Organic Cation Transporter 1 Activities” (International Journal of Molecular Sciences, 2022).

Test system: not given
Experiment: not given
Parameters: method as in PMID 19243716
Details: published studies; cited from earlier work

SMILES	variation of blood concentrations
c1cnc2cc3c(cc2n1)[C@@H]1CNC[C@H]3C1 [varenicline]	more than 100 fold

Target: T1, OCT1 (Homo sapiens, UniProt O15245)
T1 construct: expressed in transfected cells; host or cells: HEK293
T1 sequence (O15245 1-554): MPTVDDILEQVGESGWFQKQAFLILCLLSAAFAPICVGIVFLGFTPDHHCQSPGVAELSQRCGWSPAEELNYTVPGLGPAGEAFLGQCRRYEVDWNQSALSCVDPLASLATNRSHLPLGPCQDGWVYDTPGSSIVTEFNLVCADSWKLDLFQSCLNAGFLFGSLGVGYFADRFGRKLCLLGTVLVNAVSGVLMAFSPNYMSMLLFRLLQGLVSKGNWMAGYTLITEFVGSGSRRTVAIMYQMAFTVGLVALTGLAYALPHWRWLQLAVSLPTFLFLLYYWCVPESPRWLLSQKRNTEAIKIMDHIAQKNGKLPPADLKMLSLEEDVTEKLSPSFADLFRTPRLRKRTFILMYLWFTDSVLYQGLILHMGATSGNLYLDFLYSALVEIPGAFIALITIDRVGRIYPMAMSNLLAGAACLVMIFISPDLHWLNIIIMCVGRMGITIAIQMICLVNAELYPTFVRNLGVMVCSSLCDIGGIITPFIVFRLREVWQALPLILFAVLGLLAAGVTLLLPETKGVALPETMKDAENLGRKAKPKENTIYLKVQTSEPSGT
Experiment: Cell uptake in OCT1 overexpressing HEK293 cells over empty-vector transfected cells
Type: cell-based
Details: not given

SMILES	OCT1 Ratio
N[C@@H]1C[C@H]1c1ccccc1 (racemic) [Tranylcypromine]	1.60
Nc1nc2c(ncn2COCCO)c(=O)[nH]1 [Acyclovir]	2.00
CC(C)(C)NCC(O)c1cc(Cl)c(N)c(Cl)c1 (centres unmarked) [Clenbuterol]	1.10
COc1cccc2c1C(=O)c1c(O)c3c(c(O)c1C2=O)C[C@@](O)(C(C)=O)C[C@@H]3O[C@H]1C[C@H](N)[C@H](O)[C@H](C)O1 [Daunorubicin]	1.10
CN(C)CC(c1ccc(O)cc1)C1(O)CCCCC1 (centres unmarked) [Desmethylvenlafaxine]	3.30
COc1ccc2c3c1O[C@H]1[C@@H](O)CC[C@H]4[C@@H](C2)N(C)CC[C@@]341 [Dihydrocodeine]	0.80
CNCC[C@H](Oc1cccc2ccccc12)c1cccs1 [Duloxetine]	1.20
CN[C@@H](C)[C@H](O)c1ccccc1 [Ephedrine]	1.50
CCOC(=O)c1cncn1[C@H](C)c1ccccc1 [Etomidate]	0.94
COc1ccc2c3c1O[C@H]1C(=O)CC[C@H]4[C@@H](C2)N(C)CC[C@]314 [Hydrocodone]	1.20
CNC1(c2ccccc2Cl)CCCCC1=O (centres unmarked) [Ketamine]	1.10
CCC1(c2cccc(O)c2)CCCCN(C)C1 (centres unmarked) [Meptazinol]	3.20
COC(=O)C(c1ccccc1)C1CCCCN1 (centres unmarked) [Methylphenidate]	1.90
CCN(CC)CCNC(=O)c1cc(Cl)c(N)cc1OC [Metoclopramide]	1.80
CNCC1CCCCC1(O)c1cccc(OC)c1 (centres unmarked) [N-Desmethyltramadol]	2.40
CCOC(=O)[C@]1(c2ccccc2)CCC=C[C@H]1NC [Nortilidine]	1.62
COc1ccc2c3c1O[C@H]1C(=O)CC[C@@]4(O)[C@@H](C2)N(C)CC[C@]314 [Oxycodone]	0.90
Fc1ccc([C@@H]2CCNC[C@H]2COc2ccc3c(c2)OCO3)cc1 [Paroxetin]	1.17
CC(C)(C)NCC(O)c1ccc(O)c(CO)n1 (centres unmarked) [Pirbuterol]	80.90
N#CC(CCN1CCC(C(N)=O)(N2CCCCC2)CC1)(c1ccccc1)c1ccccc1 [Piritramide]	1.18
CNC(=C[N+](=O)[O-])NCCSCc1ccc(CN(C)C)o1 [Ranitidin]	18.10
CN1[C@@H]2C[C@@H](OC(=O)[C@H](CO)c3ccccc3)C[C@H]1[C@@H]1O[C@@H]12 [Scopolamin]	1.10
Cn1c(=O)c2[nH]cnc2n(C)c1=O [Theophyllin]	1.00
CCOC(=O)C1(c2ccccc2)CCC=CC1N(C)C (centres unmarked) [Tilidine]	1.30

Same assay, conditions: cell uptake in OCT1 overexpressing cells over uptake in mock transfected cells

SMILES	OCT1 Ratio
CCCC(=O)Nc1ccc(OCC(O)CNC(C)C)c(C(C)=O)c1 (centres unmarked) [Acebutolol]	5.20
CN(C)CCC=C1c2ccccc2CCc2ccccc21 [Amitriptyline]	1.20
C[N+](C)(C)CC(=O)O [Betaine]	1.00
CC(C)NCC(O)COc1ccc(COCCOC(C)C)cc1 (centres unmarked) [Bisoprolol]	1.00
COc1cc(OC)c(C(=O)CCCN2CCCC2)c(OC)c1 [Buflomedil]	1.00
C[N+](C)(C)CCO [Choline]	1.50
CC(CCc1ccc(O)cc1)NCCc1ccc(O)c(O)c1 (centres unmarked) [Dobutamine]	14.70
CN(C)CCC=C1c2ccccc2COc2ccccc21 [Doxepin]	1.30
CN1CCC[C@@H]1Cc1c[nH]c2ccc(CCS(=O)(=O)c3ccccc3)cc12 [Eletriptan]	1.20
CN[C@@H]1CCc2[nH]c3ccc(C(N)=O)cc3c2C1 [Frovatriptan]	33.10
NNC(=O)c1ccncc1 [Isoniazid]	0.94
CC[C@@H](C(N)=O)N1CCCC1=O [Levetiracetam]	1.00
CC12CC3CC(C)(C1)CC(N)(C3)C2 [Memantine]	1.10
C[C@@H](O)[C@H]1C(=O)N2C(C(=O)O)=C(S[C@@H]3CN[C@H](C(=O)N(C)C)C3)[C@H](C)[C@H]12 [Meropenem]	1.10
Cc1nccn1CC1CCc2c(c3ccccc3n2C)C1=O (centres unmarked) [Ondansetron]	1.00
Cn1c(=O)[nH]c2ncn(C)c2c1=O [Paraxanthine]	1.00
CNC[C@H](O)c1cccc(O)c1 [Phenylephrine]	10.60
CC(C)NCC(O)COc1cccc2[nH]ccc12 (centres unmarked) [Pindolol]	1.20
CC(C)NCC(O)COc1cccc2ccccc12 (centres unmarked) [Propranolol]	1.10
NC(=O)c1cnccn1 [Pyrazinamide]	0.80
Cc1ncc(C[n+]2csc(CCO)c2C)c(N)n1 [Thiamine]	11.60
COc1cc(Cc2cnc(N)nc2N)cc(OC)c1OC [Trimethoprim]	1.90
COc1ccccc1N1CCN(CCCNc2cc(=O)n(C)c(=O)n2C)CC1 [Urapidil]	1.10
CN(C)CCc1c[nH]c2ccc(C[C@H]3COC(=O)N3)cc12 [Zolmitriptan]	10.00

Target: T1, OCT1
Experiment: not given
Parameters: method as in PMID 34093211
Details: cited from earlier work

SMILES	OCT1 substrate status
CN(C)CCC=C1c2ccccc2CCc2ccccc21 [Amitriptyline]	not OCT1 substrates
